Test results reported in US5789434A, “Derivatives of substituted 4-biarylbutyric acid as matrix metalloprotease inhibitors” (priority 1995, dated 1998).

What was measured:
MMP-3 = target: T1, MMP-3 (Homo sapiens, UniProt P08254); test: Primary Thiopeptilide MMP-3 Inhibition Assay; type: biochemical; details: pH 6.5; 13 nM stromelysin; x (n) = average of n determinations; read-out: MMP-3 Thiopep. IC50
T1 construct: Truncated Prostromelysin-257 was expressed in a soluble form in E.coli; made in house; host or cells: E. coli
T1 sequence (P08254 100-274 limits assumed): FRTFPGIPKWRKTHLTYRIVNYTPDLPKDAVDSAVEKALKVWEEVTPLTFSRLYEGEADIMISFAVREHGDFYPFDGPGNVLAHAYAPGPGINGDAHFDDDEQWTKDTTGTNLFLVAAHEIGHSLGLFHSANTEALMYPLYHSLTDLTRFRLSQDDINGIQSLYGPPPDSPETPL

MMP-9 = target: T2, MMP-9 (Homo sapiens, UniProt P14780); test: Thiopeptilide MMP-9 Inhibition Assay; type: biochemical; details: for IC50: pH 6.5, x (n) = average of n determinations, read-out: MMP-9: Thiopep. IC50; for inhibition at 5 µM: read-out: MMP-9: Thiopep. % inhibition
T2 construct: from tissue; host or cells: human polymorphonuclear leukocytes (PMN) from whole blood (New York Blood Center), PMA-stimulated supernatant
T2 sequence (P14780 107-707 limits assumed): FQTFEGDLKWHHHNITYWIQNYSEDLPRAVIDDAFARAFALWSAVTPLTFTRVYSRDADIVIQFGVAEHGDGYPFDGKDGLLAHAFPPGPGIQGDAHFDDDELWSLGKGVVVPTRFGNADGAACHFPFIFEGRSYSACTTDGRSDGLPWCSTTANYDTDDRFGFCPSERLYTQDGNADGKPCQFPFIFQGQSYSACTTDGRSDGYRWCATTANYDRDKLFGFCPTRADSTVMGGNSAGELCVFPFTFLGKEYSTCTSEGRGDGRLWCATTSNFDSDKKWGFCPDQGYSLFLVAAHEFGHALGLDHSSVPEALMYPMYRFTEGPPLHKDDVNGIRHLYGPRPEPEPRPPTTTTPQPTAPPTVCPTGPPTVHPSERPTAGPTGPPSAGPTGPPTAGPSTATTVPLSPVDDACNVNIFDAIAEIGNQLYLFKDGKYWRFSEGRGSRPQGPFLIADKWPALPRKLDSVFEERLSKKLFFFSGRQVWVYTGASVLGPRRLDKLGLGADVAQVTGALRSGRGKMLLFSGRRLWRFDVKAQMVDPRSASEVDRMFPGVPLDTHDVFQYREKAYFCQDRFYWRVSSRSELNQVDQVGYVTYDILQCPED

Row | IC50 (MMP-3) [nM] | IC50 (MMP-9) [nM] | inhibition at 5 µM (MMP-9) [%] | SMILES
1 | 340 | 390 | – | O=C(CC(CSc1ccc(Cl)cc1)C(=O)O)c1ccc(-c2ccc(Cl)cc2)cc1 (stereo not drawn) [Example 209, [1,1'-Biphenyl]-4-butanoic acid, 4'-chloro-α-[[(4-chlorophenyl)thio]methyl]-γ-oxo-]
2 | 500 | 205 | – | O=C(CC(CSc1ccc(Br)cc1)C(=O)O)c1ccc(-c2ccc(Cl)cc2)cc1 (stereo not drawn) [Example 210, [1,1'-Biphenyl]-4-butanoic acid, α-[[(4-bromophenyl)thio]methyl]-4'-chloroγ-oxo-]
3 | 440 | 280 | – | Cc1ccc(SCC(CC(=O)c2ccc(-c3ccc(Cl)cc3)cc2)C(=O)O)cc1 (stereo not drawn) [Example 211, [1,1'-Biphenyl]-4-butanoic acid, 4'-chloro-α-[[(4-methylphenyl)thio]methyl]-γ-oxo-]
4 | 650 | 390 | – | CCc1ccc(SCC(CC(=O)c2ccc(-c3ccc(Cl)cc3)cc2)C(=O)O)cc1 (stereo not drawn) [Example 212, [1,1'-Biphenyl]-4-butanoic acid, 4'-chloro-α-[[(4-ethylphenyl)thio]methyl]-γ-oxo-]
5 | 2500 | – | 41 | CC(C)(C)c1ccc(SCC(CC(=O)c2ccc(-c3ccc(Cl)cc3)cc2)C(=O)O)cc1 (stereo not drawn) [Example 213, [1,1'-Biphenyl]-4-butanoic acid, 4'-chloro-α-[[(4-(1,1-dimethylethyl)phenyl]thio]methyl]-γ-oxo-]
6 | 170 | 2200 | – | O=C(CC(CSC1CCCCC1)C(=O)O)c1ccc(-c2ccc(Cl)cc2)cc1 (stereo not drawn) [Example 214, [1,1'-Biphenyl]-4-butanoic acid, 4'-chloro-α-[(cyclohexylthio)methyl]-γ-oxo-]
7 | 1300 | 1200 | – | COc1ccc(SCC(CC(=O)c2ccc(-c3ccc(Cl)cc3)cc2)C(=O)O)cc1OC (stereo not drawn) [Example 215, [1,1'-Biphenyl]-4-butanoic acid, 4'-chloro-α-[[(3,4-dimethoxyphenyl)thio]methyl]-γ-oxo-]
8 | 770 | 590 | – | O=C(CC(CSc1ccc(Cl)c(Cl)c1)C(=O)O)c1ccc(-c2ccc(Cl)cc2)cc1 (stereo not drawn) [Example 216, [1,1'-Biphenyl]-4-butanoic acid, 4'-chloro-α-[[(3,4-dichlorophenyl)thio]methyl]-γ-oxo-]
9 | 83 | 245 | – | O=C(CC(CSc1ccccc1CO)C(=O)O)c1ccc(-c2ccc(Cl)cc2)cc1 (stereo not drawn) [Example 217, [1,1'-Biphenyl]-4-butanoic acid, 4'-chloro-α-[[[2-(hydroxymethyl)phenyl]thio]methyl]-γ-oxo-]
10 | 170 | 435 | – | O=C(CC(CSc1ccccc1F)C(=O)O)c1ccc(-c2ccc(Cl)cc2)cc1 (stereo not drawn) [Example 218, [1,1'-Biphenyl]-4-butanoic acid, 4'-chloro-α-[[(2-fluorophenyl)thio]methyl]-γ-oxo-]
11 | 260 | 600 | – | O=C(CC(CSc1ccccc1Br)C(=O)O)c1ccc(-c2ccc(Cl)cc2)cc1 (stereo not drawn) [Example 219, [1,1'-Biphenyl]-4-butanoic acid, 4'-chloro-α-[[(2-bromophenyl)thio]methyl]-4'-chloro-γ-oxo-]
12 | 190 | 950 | – | CCc1ccccc1SCC(CC(=O)c1ccc(-c2ccc(Cl)cc2)cc1)C(=O)O (stereo not drawn) [Example 220, [1,1'-Biphenyl]-4-butanoic acid, 4'-chloro-α-[[(2-ethylphenyl)thio]methyl]-γ-oxo-]
13 | 240 | 2400 | – | CC(C)c1ccccc1SCC(CC(=O)c1ccc(-c2ccc(Cl)cc2)cc1)C(=O)O (stereo not drawn) [Example 221, [1,1'-Biphenyl]-4-butanoic acid, 4'-chloro-α-[[[2-(1-methylethyl)phenyl]thio]methyl]-γ-oxo-]
14 | 610 | 1800 | – | O=C(CC(CSc1ccncc1)C(=O)O)c1ccc(-c2ccc(Cl)cc2)cc1 (stereo not drawn) [Example 222, [1,1'-Biphenyl]-4-butanoic acid, 4'-chloro-γ-oxo-α-[(4-pyridinylthio)methyl]-]
15 | 930 | 580 | – | CC(=O)Nc1ccc(SCC(CC(=O)c2ccc(-c3ccc(Cl)cc3)cc2)C(=O)O)cc1 (stereo not drawn) [Example 223, [1,1'-Biphenyl]-4-butanoic acid, α-[[[4-(acetylamino)phenyl]thio]methyl]-4'-chloro-γ-oxo-]
16 | 680 | 550 | – | O=C(CC(CSc1ccc([N+](=O)[O-])cc1)C(=O)O)c1ccc(-c2ccc(Cl)cc2)cc1 (stereo not drawn) [Example 224, [1,1'-Biphenyl]-4-butanoic acid, 4'-chloro-α[[(4-nitrophenyl)thio]methyl]-γ-oxo-]
17 | 310 | 550 | – | O=C(O)CCc1ccc(SCC(CC(=O)c2ccc(-c3ccc(Cl)cc3)cc2)C(=O)O)cc1 (stereo not drawn) [Example 225, [1,1'-Biphenyl]-4-butanoic acid, α-[[[4-(2-carboxyethyl)phenyl]thio]methyl]-4'-chloro--γ-oxo-]
18 | 720 | 255 | – | O=C(CC(CSc1ccc2ccccc2c1)C(=O)O)c1ccc(-c2ccc(Cl)cc2)cc1 (stereo not drawn) [Example 226, [1,1'-Biphenyl]-4-butanoic acid, 4'-chloro-α-[(2-naphthalenylthio)methyl]-γ-oxo-]
19 | 220 | 360 | – | O=C(CC(CSc1cccc2ccccc12)C(=O)O)c1ccc(-c2ccc(Cl)cc2)cc1 (stereo not drawn) [Example 227, [1,1'-Biphenyl]-4-butanoic acid, 4'-chloro-α-[(1-naphthalenylthio)methyl]-γ-oxo-]
20 | 360 | 800 | – | O=C(CC(CSc1cccc(Br)c1)C(=O)O)c1ccc(-c2ccc(Cl)cc2)cc1 (stereo not drawn) [Example 228, [1,1'-Biphenyl]-4-butanoic acid, α-[[(3-bromophenyl)thio]methyl]-4'-chloro-γ-oxo-]
21 | 300 | 900 | – | COc1ccccc1SCC(CC(=O)c1ccc(-c2ccc(Cl)cc2)cc1)C(=O)O (stereo not drawn) [Example 229, [1,1'-Biphenyl]-4-butanoic acid, 4'-chloro-α-[[(2-methoxyphenyl)thio]methyl]-γ-oxo-]
22 | 250 | 550 | – | O=C(CC(CSc1ccccc1Cl)C(=O)O)c1ccc(-c2ccc(Cl)cc2)cc1 (stereo not drawn) [Example 230, [1,1'-Biphenyl]-4-butanoic acid, 4'-chloro-α-[[(2-chlorophenyl)thio]methyl]-γ-oxo-]
23 | 280 | 820 | – | Cc1cccc(SCC(CC(=O)c2ccc(-c3ccc(Cl)cc3)cc2)C(=O)O)c1 (stereo not drawn) [Example 231, [1,1'-Biphenyl]-4-butanoic acid, 4'-chloro-α-[[(3-methylphenyl)thio]methyl]-γ-oxo-]
24 | 150 | 200 | – | Cc1ccccc1SCC(CC(=O)c1ccc(-c2ccc(Cl)cc2)cc1)C(=O)O (stereo not drawn) [Example 232, [1,1'-Biphenyl]-4-butanoic acid, 4'-chloro-α-[[(2-methylphenyl)thio]methyl]-γ-oxo-]
25 | 339 | 4800 | – | O=C(CC(CSc1ccccc1C(=O)O)C(=O)O)c1ccc(-c2ccc(Cl)cc2)cc1 (stereo not drawn) [Example 233]
26 | 144 | 600 | – | COc1cccc(SCC(CC(=O)c2ccc(-c3ccc(Cl)cc3)cc2)C(=O)O)c1 (stereo not drawn) [Example 234, [1,1'-Biphenyl]-4-butanoic acid, 4'-chloro-α-[[(3-methoxyphenyl)thio]methyl]-γ-oxo-]
27 | 490 | – | 53 | CC(C)SCC(CC(=O)c1ccc(-c2ccc(Cl)cc2)cc1)C(=O)O (stereo not drawn) [Example 239, [1,1'-Biphenyl]-4-butanoic acid, 4'-chloro-α-[[(1-methylethyl)thio]methyl]-γ-oxo-]
